Results as given in patent publication US20230286973A1, “PROTEIN SECRETION INHIBITORS” (KEZAR LIFE SCIENCES, priority 2020, published 2023).
Read-outs that look alike come from different tables or passages of the source.

Legend:
[1] = Liver Microsome Stability Assay (mouse); settings: mouse liver microsomes, with NADPH, 1.0 uM compound
Method: (§1) Stability of a compound was assessed in the presence of liver microsomes from various sources—mouse, rat, monkey and human liver microsomes. 1.0 uM compound, 0.4% DMSO in 0.1 M Potassium Phosphate with 1.0 mg/mL liver microsomes, were incubated at 37° C. with or without 1 mM NADPH. The samples were quenched at 0, and 30 minutes.

[2] = system: HER3-ss+4aa/Gaussia Luciferase; test: Dox-Induced Her3-ss-Gluc Assay; assay type: cell-based; settings: 24 hr Dox induction, 293FRT/TO cells, read-out: 24 hr Dox Inducible Her3(ss + 4)Gluc 293FRT/TO: Mean IC50
Method in brief: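 Reporter line: Flp-In 293 T-REx, T-REx-regulated HER3-ss+4aa fused to Gaussia luciferase. Compound co-added with doxycycline after overnight plating, 37° C., 5% CO2.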

[3] = system: TNFα-FL/Gaussia Luciferase; test: Dox Induced TNFα-FL-Gluc Assay; assay type: cell-based; settings: for IC50: 24 hr Dox induction, 293FRT/TO cells, read-out: 24 hr Dox Inducible TNFaFLGluc 293FRT/TO: Mean IC50; for 24 hr Dox Inducible TNFaFLGluc 293FRT/TO: TNF/PD1: ratio of TNFaFLGluc IC50 to PD1ssGluc IC50
Method in brief: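 Doxycycline-inducible Gaussia luciferase-tagged full-length TNFα (1-233) was expressed in stable Flp-In 293 T-REx cells. Compounds were co-added with doxycycline and incubated at 37 °C, 5% CO2.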

[4] = system: multiple myeloma cell line U266B1; test: U266 Cell Viability Assay; assay type: cell-based, human; settings: Homo sapiens, U-266, 48 h, U266B1 cells, Celltiter-Glo
Method in brief: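 Viability is measured as luciferase signal from CellTiter-Glo following a 48-hour incubation with compound at 37° C. under 5% CO2. Where structures lack drawn stereochemistry, values refer to stereoisomer mixtures.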

[5] = system: PD1-ss+10aa/Gaussia Luciferase; test: Dox-Induced PD1-ss-Gluc Assay; assay type: cell-based; settings: 24 hr Dox induction, 293FRT/TO cells, read-out: 24 hr Dox Inducible PD1ssGluc 293FRT/TO: Mean IC50
Method in brief: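 Gaussia luciferase fused downstream of the PD1 signal peptide plus 10 residues was expressed on doxycycline induction in stably transfected Flp-In 293 T-REx cells. Compounds were added with doxycycline and incubated at 37 °C, 5% CO2.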

[6] = system: IL-2-FL/Gaussia Luciferase; test: Dox Induced IL2-FL-Gluc Assay; assay type: cell-based; settings: for IC50: 24 hr Dox induction, 293FRT/TO cells, read-out: 24 hr Dox Inducible IL2FLGluc 293FRT/TO: Mean IC50; for 24 hr Dox Inducible IL2FLGluc 293FRT/TO: IL2/PD1: ratio of IL2FLGluc IC50 to PD1ssGluc IC50
Method in brief: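 Doxycycline induces an IL-2(1-153)–Gaussia luciferase fusion in a stable Flp-In 293 T-REx line. Compound exposure runs alongside induction at 37° C.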

[7] = Liver Microsome Stability Assay (monkey); settings: monkey liver microsomes, with NADPH, 1.0 uM compound
Method: as §1

[8] = system: multiple myeloma cell line NCI-H929; test: H929 Cell Viability Assay; assay type: cell-based, human; settings: Homo sapiens, NCI-H929, 48 h, NCI-H929 cells, Celltiter-Glo
Method in brief: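 Viability is scored by CellTiter-Glo luminescence following a 48-hour treatment at 37° C. Data for structures shown without stereochemistry refer to stereoisomer mixtures.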

[9] = Liver Microsome Stability Assay (human); settings: human liver microsomes, with NADPH, 1.0 uM compound
Method: as §1

[10] = Liver Microsome Stability Assay (rat); settings: rat liver microsomes, with NADPH, 1.0 uM compound
Method: as §1

[11] = '<=>' given where both are I.A.

Row | SMILES | Liver Microsome Stability (Multiple Species): Mouse - % Remaining after 30 min w/NADPH [1] | IC50 ([2]; mean) | IC50 ([3]; mean) | EC50 [4] | IC50 ([5]; mean) | IC50 ([6]; mean) | 24 hr Dox Inducible IL2FLGluc 293FRT/TO: IL2/PD1 [6, 11] | Liver Microsome Stability (Multiple Species): Monkey - % Remaining after 30 min w/NADPH [7] | EC50 [8] | Liver Microsome Stability (Multiple Species): Human - % Remaining after 30 min w/NADPH [9] | Liver Microsome Stability (Multiple Species): Rat - % Remaining after 30 min w/NADPH [10] | IC50 [2] | IC50 [3] | 24 hr Dox Inducible TNFaFLGluc 293FRT/TO: TNF/PD1 [3] | IC50 [5] | IC50 [6] | 24 hr Dox Inducible IL2FLGluc 293FRT/TO: IL2/PD1 [6] | 24 hr Dox Inducible TNFaFLGluc 293FRT/TO: TNF/PD1 [3, 11]
1 | CC(=O)NC/C=C/c1csc(NC(=O)c2cccn2Cc2ccncc2)n1 [Compound E30, (E)-N-(4-(3-acetamidoprop-1-en-1-yl)thiazol-2-yl)-1-(pyridin-4-ylmethyl)-1H-pyrrole-2-carboxamide] | 26.4% | > 25000 nM | > 25000 nM | > 25000 nM | > 25000 nM | > 25000 nM | 1 | 9.96% | > 25000 nM | 20.8% | 37.7% | – | – | – | – | – | – | –
2 | CN(C)C(=O)N1CCC(Oc2ccc(N3CCC[C@@H]3c3csc(NC(=O)c4cccn4Cc4ccnc(F)c4)n3)cc2)CC1 [Compound A137, (R)-4-(4-(2-(2-(1-((2-fluoropyridin-4-yl)methyl)-1H-pyrrole-2-carboxamido)thiazol-4-yl)pyrrolidin-1-yl)phenoxy)-N,N-dimethylpiperidine-1-carboxamide] | 1.78% | – | – | > 25000 nM | – | – | – | 2.57% | 948 nM | 4.35% | 24.2% | 51.5 nM | 566 nM | 17.6 | 32.2 nM | 61.4 nM | 1.9 | –
3 | CNC(=O)N1CCC(Oc2ccc(N3CCC[C@@H]3c3csc(NC(=O)c4cccn4Cc4ccnc(F)c4)n3)cc2)CC1 [Compound A136, (R)-4-(4-(2-(2-(1-((2-fluoropyridin-4-yl)methyl)-1H-pyrrole-2-carboxamido)thiazol-4-yl)pyrrolidin-1-yl)phenoxy)-N-methylpiperidine-1-carboxamide] | 2.63% | – | – | > 25000 nM | – | – | – | 0.44% | 2410 nM | 15.6% | 15.7% | 86.7 nM | 1010 nM | 16.9 | 59.6 nM | 186 nM | 3.1 | –
4 | O=C(CO)Nc1ccc(N2CCC[C@@H]2c2csc(NC(=O)c3cccn3Cc3ccnc(F)c3)n2)cc1 [Compound A141, (R)-1-((2-fluoropyridin-4-yl)methyl)-N-(4-(1-(4-(2-hydroxyacetamido)phenyl)pyrrolidin-2-yl)thiazol-2-yl)-1H-pyrrole-2-carboxamide] | 0.97% | – | – | > 25000 nM | – | – | – | 0.94% | 921 nM | 2.77% | 2.9% | 43.9 nM | 497 nM | 18 | 27.5 nM | 54 nM | 2 | –
5 | CC(=O)N1CCC(c2ccc(N3CCC[C@@H]3c3csc(NC(=O)c4cccn4Cc4ccncc4)n3)cc2)CC1 [Compound A55, (R)-N-(4-(1-(4-(1-acetylpiperidin-4-yl)phenyl)pyrrolidin-2-yl)thiazol-2-yl)-1-(pyridin-4-ylmethyl)-1H-pyrrole-2-carboxamide] | 18.3% | – | – | > 25000 nM | – | – | – | 0.1% | 682 nM | 0.34% | 0.11% | 41.4 nM | 426 nM | 21.8 | 19.5 nM | 58.1 nM | 3 | –
6 | O=C(Nc1nc(-c2ccccc2-c2ccccn2)cs1)c1cccn1Cc1ccnc(F)c1 [Compound A168, 1-((2-fluoropyridin-4-yl)methyl)-N-(4-(2-(pyridin-2-yl)phenyl)thiazol-2-yl)-1H-pyrrole-2-carboxamide] | 0.09% | – | – | > 25000 nM | – | – | – | 0.02% | 2710 nM | 0.45% | 0.52% | 60.5 nM | 569 nM | 16.3 | 35 nM | 53.7 nM | 1.5 | –
7 | O=C(Nc1nc(/C=C/[C@H]2CCCCN2)cs1)c1cccn1Cc1ccncc1 [Compound E16, (R,E)-N-(4-(2-(piperidin-2-yl)vinyl)thiazol-2-yl)-1-(pyridin-4-ylmethyl)-1H-pyrrole-2-carboxamide] | 37% | > 25000 nM | > 25000 nM | > 25000 nM | > 25000 nM | > 25000 nM | 1 | 0.72% | > 25000 nM | 1.56% | 51.2% | – | – | – | – | – | – | –
8 | Cc1cc(C(=O)Nc2nc([C@H]3CCCN3c3ccc(OC4CCN(C(N)=O)CC4)cc3)cs2)n(Cc2ccnc(F)c2)c1 [Compound A166, (R)-4-(4-(2-(2-(1-((2-fluoropyridin-4-yl)methyl)-4-methyl-1H-pyrrole-2-carboxamido)thiazol-4-yl)pyrrolidin-1-yl)phenoxy)piperidine-1-carboxamide] | 63.9% | – | – | > 25000 nM | – | – | – | 72.2% | 2210 nM | 64.3% | 78.7% | 93.7 nM | 744 nM | 14.1 | 52.8 nM | 109 nM | 2.1 | –
9 | O=C(Nc1nc([C@H]2CCCN2c2ccccc2)cs1)c1cccn1Cc1ccc(=O)[nH]c1 [Compound C10] | 29.5% | 13900 nM | > 25000 nM | > 25000 nM | 5210 nM | 7090 nM | 1.4 | 9.66% | 24300 nM | 22.6% | 38.8% | – | – | – | – | – | – | >4.80
